{
  "source": "patent US20190177284A1",
  "about": "“TETRAZOLYL-CONTAINING CYCLOPROPANECARBOXAMIDES” (Bayer Pharma Aktiengesellschaft, priority 2017, published 2019)",
  "origin": "cited, not measured here",
  "key": {"[1]": {"details": "cited from earlier work"}, "[2]": {"details": "cited from earlier work", "remark": "listed apart in the source"}, "[3]": {"details": "cited from earlier work", "remark": "listed apart in the source"}, "[4]": {"details": "due to metabolic liability; cited from earlier work"}},
  "data": [
    {"molecule": "C[C@@H]1CC[C@H](C)N1C(=O)c1ccc([C@@H](C)NC(=O)C2(NC(=O)c3cc(F)cc(C(F)(F)F)c3)CC2)c(F)c1", "values": [
      {"measurement": "human metabolic stability", "setting": "[1]", "value": "poor"},
      {"measurement": "aqueous solubility", "setting": "[2]", "value": "reasonable"},
      {"measurement": "pharmacokinetic profile in rat", "setting": "[3]", "value": "reasonable"}
    ]},
    {"molecule": "C[C@@H](NC(=O)C1(NC(=O)C(F)(F)F)CC1)c1ccc(-c2cccc(Cl)c2C(=O)O)cc1F", "note": "[MK-0686]", "values": [
      {"measurement": "pharmacokinetic profile", "setting": "[4]", "value": "suboptimal"}
    ]}
  ]
}
